Source: patent US20200078379A1, “DEFEROXAMINE DERIVATIVES AS MEDICAMENTS” (BIOTECHNOLOGICKY USTAV AV CR, V.V.I., priority 2017, published 2020)
Read-outs that look alike come from different tables or passages of the source.

Assays:
T47D cells = assay: crystal violet assay, cellular viability; assay type: cell-based; settings: for IC50: Homo sapiens
BT474 cells [1] = assay: crystal violet assay, cellular viability; assay type: cell-based; settings: for IC50: Homo sapiens, BT-474
CFPAC-1 cells = assay: crystal violet assay, cellular viability; assay type: cell-based; settings: Homo sapiens, CFPAC-1, 48 hours
PaTu 8902 cells = assay: crystal violet assay, cellular viability; assay type: cell-based; settings: PaTu 8902, 48 hours
[2] = system: tamoxifen-resistant BT474 (Tam5R); assay: crystal violet assay, tamoxifen resistant cells; assay type: cell-based; settings: Homo sapiens, BT-474, grown in 5 μM tamoxifen
Method: (§1) Compound 1 and compound 2 were tested in their efficacy to kill malignant MCF7 cancer cells. Briefly, 10.000 cells per well were seeded in a 96-well plat on one day and the next day selected compounds were added and incubated with the cells for 48 hrs. The cells were then fixed with 4% paraformaldehyde, stained with 0.05% crystal violet, washed with PBS, and solubilized in 1% SDS. The absorbance of the plate at 595 nm was then measured, quantifying the number of viable cells.
(§2) To test whether compound 2 is active against resistant cancer cells, we used tamoxifen-resistant MCF7, T47D and BT474 cell lines. The IC50 values were again measured with the crystal violet assay performed as in example 18. We have documented that there is no statistically significant difference in the ability of compound 2 to induce cytostatic and cytotoxic effects between the parental cells sensitive to tamoxifen and the resistant ones that grow even in the presence of tamoxifen (Table 4).

[3] = system: tamoxifen-resistant MCF7 (Tam5R); assay: crystal violet assay, tamoxifen resistant cells; assay type: cell-based; settings: Homo sapiens, grown in 5 μM tamoxifen
Method: as §1, §2

[4] = system: tamoxifen-resistant T47D (Tam5R); assay: crystal violet assay, tamoxifen resistant cells; assay type: cell-based; settings: Homo sapiens, grown in 5 μM tamoxifen
Method: as §1, §2

MCF7 cells [5] = assay: AnnexinV/PI cell death assay; assay type: cell-based, human; settings: for mean percentage of dead cells (AnnexinV/PI): 48 hrs
Method: (§3) Briefly, cells were seeded in 12-well plate at 100,000 per well, incubated with the selected compounds for 48 hours, then floating cells were spun, adherent cells trypsinized and spun as well followed by the staining with AnnexinV-FITC and PI probes. Cells were then washed with PBS and measured via Fluorescence Activated Sorter.

BT474 cells [6] = assay: AnnexinV/PI cell death assay; assay type: cell-based; settings: 48 hrs
Method: as §3, with “To confirm such findings by an independent method, cell death-inducing potency (cytotoxic efficacy) of DFO and compound 2 have been tested via annexin V/PI staining commonly used as a measure of apoptotic/necrotic cell death. Briefly,” for “Briefly,”

BT549 cells = assay: AnnexinV/PI cell death assay; assay type: cell-based; settings: 48 hrs
Method: as §3, with “To confirm such findings by an independent method, cell death-inducing potency (cytotoxic efficacy) of DFO and compound 2 have been tested via annexin V/PI staining commonly used as a measure of apoptotic/necrotic cell death. Briefly,” for “Briefly,”

non malignant cells (BJ) = assay: AnnexinV/PI cell death assay; assay type: cell-based; settings: for mean percentage of dead cells (AnnexinV/PI): 48 hrs
Method: as §3, with “To confirm such findings by an independent method, cell death-inducing potency (cytotoxic efficacy) of DFO and compound 2 have been tested via annexin V/PI staining commonly used as a measure of apoptotic/necrotic cell death. Briefly,” for “Briefly,”
We have then analyzed the percentage of death cells by the annexinV/PI staining as described in example 7. We have observed a significant potentiation in cell death induction when gallium was combined with compound 2 (Table 14)

MCF7 cells [7] = assay: cellular respiration, OXYGRAPH instrument; assay type: cell-based, human
Excerpt: Application of compound 2 leads to marked inhibition of cellular respiration as evidenced by two independent methods: the Oxygraph instrument (Rohlenova, K., Sachaphibulkij, K., Stursa, J., Bezawork-Geleta, A., Blecha, J., Endaya, B., Werner, L., Cerny, J., Zobalova, R., Goodwin, J., Spacek, T., Alizadeh, P. E., Yan, B., Nguyen, M. N., Vondrusova, M., Sobol, M., Jezek, P., Hozak, P., Truksa, J., Rohlena, J., Dong, L. F., & Neuzil, J. (2017) Selective Disruption of Respiratory Supercomplexes as a New Strategy to Suppress Her2high Breast Cancer. Antioxid. Redox. Signal., 26, 84-103) (Table 6) and Seahorse instrument (Table 7). For Seahorse analysis, 20.000 or 30.000 cells were seeded in 96 well plates and incubated with compound 2 for 1 hour. Afterwards, oxygen consumption rate (OCR) and extracellular acidification rate (ECAR) were measured in three cycles of 3 minutes preceded by 3 minutes of mixing, using a Seahorse XFe96 analyzer (Agilent). Results express the mean values of the three cycles.

[8] = system: human triple negative breast cancer cells line MDA-MB-231; assay: tumor growth in vivo, MDA-MB-231 model; design: species or system NOD-SCID gamma mice; settings: for Relative tumor size: MDA-MB-231, 8 mg/kg i.p. twice per week
Method: In order to define the effect of compound 2 on tumor growth and progression in vivo, we tested its effect on the model of human triple negative breast cancer cells line MDA-MB-231, NOD-SCID gamma mice being the immunodeficient host. Mice were injected with 1 million of cells s.c. on the right flank. After appearance of tumors (15-60 mm^3) mice were randomized into three separate group, one receiving corn oil (control) and two compound 2 in a dose of 1 mg/kg or 8 mg/kg. Tumor progression was then monitored by ultrasound imaging Vevo770 and mice received the treatment twice per week, i.p. in approximately 100 ul of corn oil.

CC(=O)N(O)CCCCCNC(=O)CCC(=O)N(O)CCCCCNC(=O)CCC(=O)N(O)CCCCCN(CCCCCCCCCC[P+](c1ccccc1)(c1ccccc1)c1ccccc1)CCCCCCCCCC[P+](c1ccccc1)(c1ccccc1)c1ccccc1.[Cl-].[Cl-] [Compound 2, Triphenyl(3,14,25-trihydroxy-2,10,13,21,24-pentaoxo-31-(10-(triphenylphosphonio)decyl)-3,9,14,20,25,31-hexaazahentetracontan-41-yl)phosphonium chloride]
Selectivity index (IC50 non-malignant/IC50 malignant) (T47D cells; BJ vs T47D, 48 hours): 4.77 | IC50 (T47D cells; T47D Parental, read-out: IC50 crystal violet): 3 µM | IC50 (T47D cells; T47D, 48 hours, crystal violet, read-out: IC50 cellular viability): 3 µM | Selectivity index (IC50 non-malignant/IC50 malignant) (BT474 cells [1]; BJ vs BT474, 48 hours): 4.33 | IC50 (BT474 cells [1]; BT474, 48 hours, crystal violet, read-out: IC50 cellular viability): 3.3 µM | IC50 (BT474 cells [1]; BT474 Parental, read-out: IC50 crystal violet): 3.3 µM | IC50 (CFPAC-1 cells): 6.9 µM | IC50 (PaTu 8902 cells): 5.5 µM | IC50 [2]: 4.2 µM | IC50 [3]: 2.1 µM | IC50 [4]: 1.2 µM | mean percentage of dead cells (AnnexinV/PI) (MCF7 cells [5]; MCF7, 5 μM): 35.6% | mean percentage of dead cells (AnnexinV/PI) (MCF7 cells [5]; MCF7, 10 μM): 43.7% | mean percentage of dead cells (AnnexinV/PI) (MCF7 cells [5]; MCF7, 20 μM): 64.0% | percentage of death cells by annexinV/PI staining (MCF7 cells [5]; MCF7, ratio Ga:compound 2 0:1, 10 μM compound 2 alone): 35.3 (0.5) | mean percentage of dead cells (AnnexinV/PI) (BT474 cells [6]; BT474, 5 μM): 18.6% | mean percentage of dead cells (AnnexinV/PI) (BT474 cells [6]; BT474, 10 μM): 39.9% | mean percentage of dead cells (AnnexinV/PI) (BT474 cells [6]; BT474, 20 μM): 92.5% | mean percentage of dead cells (AnnexinV/PI) (BT549 cells; BT549, 5 μM): 31.8% | mean percentage of dead cells (AnnexinV/PI) (BT549 cells; BT549, 10 μM): 52.3% | mean percentage of dead cells (AnnexinV/PI) (BT549 cells; BT549, 20 μM): 80.4% | mean percentage of dead cells (AnnexinV/PI) (non malignant cells (BJ); 5 μM): 6.7% | mean percentage of dead cells (AnnexinV/PI) (non malignant cells (BJ); 10 μM): 9.0% | mean percentage of dead cells (AnnexinV/PI) (non malignant cells (BJ); 20 μM): 29.8% | concentrations at which toxic effect could be detected in non-malignant BJ cells (non malignant cells (BJ); AnnexinV/PI, 48 hours): higher than 2004 | percentage of death cells by annexinV/PI staining (non malignant cells (BJ); ratio Ga:compound 2 0:1, 10 μM compound 2 alone): 9.0 (3.5) | mean O2 flow per cells (MCF7 cells [7]; MCF7, 5 μM): 15.9 pmol/s/mL | mean O2 flow per cells (MCF7 cells [7]; MCF7, 5 μM (5 h)): 9.8 pmol/s/mL | mean O2 flow per cells (MCF7 cells [7]; MCF7, 25 μM): 7.1 pmol/s/mL | effect on relative tumor growth, in words ([8]; MDA-MB-231, 8 mg/kg): significantly reduces relative tumor growth | Relative tumor size ([8]; Day 0): 1.0 | Relative tumor size ([8]; Day 4): 1.3 | Relative tumor size ([8]; Day 7): 1.8 | Relative tumor size ([8]; Day 11): 2.6 | Relative tumor size ([8]; Day 14): 3.5 | Relative tumor size ([8]; Day 18): 5.3 | Relative tumor size ([8]; Day 21): 7.9
